According to patent US20130089629A1, “KIT FOR THE TREATMENT OF ONYCHOMYCOSIS BY NITRIC OXIDE” (TOPICAL PHARMA AB, priority 2010, published 2013):

Test system: skin surrounding the finger nail and the nail itself
Test: Acidifying effect of salicylic acid paste in a fingerstall on skin and finger nail
Format: in vivo
Settings: paste 2% w/w in fingerstall, about 12 hours, vs empty fingerstall
Experimental: In a study designed to investigate the acidifying effect on the skin surrounding the finger nail as well as the nail itself a paste comprising salicylic acid at 2% w/w was inserted in a fingerstall. The fingerstall was applied over the top of the finger covering it tightly for about 12 hours. A completely empty stall covering another finger served as control for the same time period
Upon scratching the nail surface with a sharp metal edge device, nail fragments (keratinized cells) were easily released in contrast to the nail at the finger covered with an empty fingerstall where the nail plate surface was hard.

## O=C(O)c1ccccc1O [salicylic acid]
  appearance of the skin after exposure: softening and loosening up of the skin
  effect on the nail plate surface: loosened up the superficial outer nail plate layer
